Assay results taken from PubChem BioAssay AID1421 (Emory University Molecular Libraries Screening Center, 2008).
Active and inactive are the calls of the source. The rule behind the calls is not given here.

These compounds were tested against Prostaglandin E2 receptor EP2 subtype (Homo sapiens) (UniProt P43116) (assay: EP2 receptor modulators, dose response, cell-based, human EP2, PGE2 EC50 shift (AID 1421)). Settings: EP2-expressing cells, PGE2 EC50 shift by compound.
Prostaglandin E2 receptor EP2 subtype (Homo sapiens), sequence (P43116 whole entry, looked up): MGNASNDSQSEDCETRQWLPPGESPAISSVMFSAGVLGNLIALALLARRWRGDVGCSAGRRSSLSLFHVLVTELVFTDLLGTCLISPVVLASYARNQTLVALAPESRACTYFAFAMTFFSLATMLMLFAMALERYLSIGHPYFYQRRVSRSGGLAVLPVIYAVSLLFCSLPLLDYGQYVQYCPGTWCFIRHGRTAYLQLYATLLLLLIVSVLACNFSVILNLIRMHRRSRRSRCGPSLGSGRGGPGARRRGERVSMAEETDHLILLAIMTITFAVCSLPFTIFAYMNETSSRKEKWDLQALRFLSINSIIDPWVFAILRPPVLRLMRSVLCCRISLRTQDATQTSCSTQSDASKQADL

N#CC1=C(N)S[C@H](C(=O)C23CC4CC(CC(C4)C2)C3)[C@H]1c1ccncc1 was tested, and the outcome was “active”.
For CC(C)OC(=O)c1c(NC(=O)c2cccs2)sc2c1CCCC2, the outcome was “active”.
For CCc1ccccc1NC1c2ccccc2C(=O)N1c1cc(C)ccn1 (stereo not drawn), the outcome was “active”.
With CC(C)Oc1nc(-c2ccccc2O)nc2ccccc12 the outcome was “active”.
CCCn1c2ccccc2c2nc3ccccc3nc21 was tested, and the outcome was “active”.
For Cc1ccc(-c2cc(C(F)(F)F)nn2-c2ccc(S(N)(=O)=O)cc2)cc1, the outcome was “active”.
For CCc1ccccc1NC(=O)/C(=C/c1ccccc1)c1ccccc1, the outcome was “active”.
With CCSc1nc2sc3c(c2c(=O)n1CC)CC(C)(C)OC3 the outcome was “active”.
CC1CCCC(C)N1C(=O)c1ccccc1Nc1ccc(SC(F)F)cc1 (stereo not drawn) was tested, and the outcome was “active”.
CC1=CC(C)(C)N(C(=O)c2ccccc2)c2ccccc21 was tested, and the outcome was “active”.
For Cc1cccc(C)c1OC(=O)C(c1ccccc1)c1ccccc1, the outcome was “active”.
In the case of CC(C)(C)C1CCC(OC(=O)c2ccncc2)CC1 (stereo not drawn), the outcome is reported as “active”.
With COc1ccc(-c2cc(C(F)(F)F)nc(N3CCOCC3)n2)cc1OC the outcome was “active”.

Same assay, conditions: EP2-expressing cells, PGE2 EC50 shift by compound; measured here: PGE2 EC50 at 6.7 uM compound

In order of falling PGE2 EC50 with compound:
1. COc1ccc(C2=NN(C(=O)c3cccs3)C(O)(C(F)(F)F)C2)cc1 (stereo not drawn)  3 nM
2. O=C(O)c1ccc(N2C(=O)/C(=C/C=C/c3ccccc3)SC2=S)cc1  2.89 nM
3. COc1ccc(-n2c(-c3cccc(OC)c3)nc(=S)c3c2CCCC3)cc1  2.89 nM
4. Cn1c(=O)[nH]c(=O)c2c1nc(N1CCCCCC1)n2Cc1cccc2ccccc12  2.64 nM
5. COc1ccccc1C(CC(=O)c1ccccc1)CC(=O)c1ccccc1  2.56 nM
6. CCc1ccccc1NC1c2ccccc2C(=O)N1c1cc(C)ccn1 (stereo not drawn)  2.49 nM
7. CC(C)CNC(=O)C(=O)NNC(=O)c1ccco1  2.49 nM
8. CCCC/C(=N\NC(=O)c1ccc(Br)o1)c1ccccc1  2.49 nM
9. Cc1cccc(C)c1OC(=O)C(c1ccccc1)c1ccccc1  2.47 nM
10. Cc1ccc(-n2cc(-c3ccccc3)c3c(N4CCOCC4)ncnc32)cc1  1.99 nM
11. COc1ccc(-c2cc(C(F)(F)F)nc(N3CCOCC3)n2)cc1OC  1.53 nM
12. O=C(O)c1oc(C(=O)O)c(C(=O)O)c1C(=O)O  1.51 nM
13. CC1Cc2ccccc2N1CC(=O)NC(c1ccccc1)c1ccccc1 (stereo not drawn)  1.48 nM
14. O=C(COc1ccccc1)Nc1ccccc1N1CCN(c2ccccc2)CC1  1.48 nM
15. O=C(c1ccccc1O)N1N=C(c2ccccc2)CC1(O)C(F)(F)F (stereo not drawn)  1.48 nM
16. CCOP(=O)(OCC)c1nc(-c2ccc(Cl)cc2Cl)oc1N1CCCCC1  1.42 nM
17. CC(C)NC(=S)N/N=C1\CCCCC1C1CCCCC1 (stereo not drawn)  1.34 nM
18. Cc1cc(Oc2ccccc2F)nc(NCc2ccccc2)n1  1.34 nM
19. Cc1sc2ncnc(SCc3ccco3)c2c1C  1.33 nM
20. Cn1nc(C(F)(F)F)c(/C=N/OC(=O)c2ccccc2)c1Sc1ccc(Cl)cc1  1.31 nM
21. CC1=CCc2c(cc3oc(C)cc(=O)c3c2O)OC1  1.3 nM
22. Cc1ccc(-c2cc(C(F)(F)F)nn2-c2ccc(S(N)(=O)=O)cc2)cc1  1.28 nM
23. COC(=O)CSc1nc2c(c(C3CC=CCC3)c1C#N)CCC2 (stereo not drawn)  1.26 nM
24. CC1CCCN(C(=O)CSc2cnc3ccccc3n2)C1 (stereo not drawn)  1.26 nM
25. O=c1c2oc3ccccc3c2[nH]c(=S)n1-c1ccccc1  1.25 nM
26. C#CCSc1nc(Cc2ccc(Cl)cc2)nc2ccccc12  1.22 nM
27. CCCn1c2ccccc2c2nc3ccccc3nc21  1.21 nM
28. CCN(CC)C(=O)CN(c1cc2c(cc1OC)oc1ccccc12)S(=O)(=O)c1ccc(C)cc1  1.2 nM
29. Cc1cc2ccc(C)c(C)c2nc1SCC#N  1.18 nM
30. Cc1cc(NC(=O)c2cc(-c3ccncc3)nc3c(C)cccc23)no1  1.16 nM
31. CC(C)(C)C1CCC(OC(=O)c2ccncc2)CC1 (stereo not drawn)  1.16 nM
32. COc1cccc2[nH]c3c(N4CC(C)CC(C)C4)ncnc3c12 (stereo not drawn)  1.15 nM
33. Cc1ccccc1Cn1c2ccccc2c2cn[nH]c(=O)c21  1.15 nM
34. CCOC(=O)c1c(NC(=O)c2ccn(CC)n2)sc2c1CCCC2  1.14 nM
35. CCc1ccccc1NC(=O)/C(=C/c1ccccc1)c1ccccc1  1.14 nM
36. C=CCC(NCc1ccccc1)c1ccc(Cl)cc1 (stereo not drawn)  1.14 nM
37. CCOC(=O)c1c(CC(C)C)csc1NC(=O)CCl  1.13 nM
38. C=CCn1c(SCC(N)=O)nc(C)cc1=O  1.07 nM
39. Cc1noc(C)c1CSc1ncnc2sc3c(c12)CCC(C)C3 (stereo not drawn)  1.06 nM
40. COc1ccc(Cl)cc1-n1c(C)ccc1C  1.06 nM
41. CC1CCCC(C)N1C(=O)c1ccccc1Nc1ccc(SC(F)F)cc1 (stereo not drawn)  1.05 nM
42. CCN(CC)c1ccc(/C=C2\C(=O)c3ccc(C(=O)O)cc3C2=O)cc1  1.04 nM
43. CCOC(=O)Cc1csc(NC(NC(=O)CC)(C(F)(F)F)C(F)(F)F)n1  1.03 nM
44. CCC1C/C(=C/c2ccco2)C(=O)/C(=C/c2ccco2)C1 (stereo not drawn)  1.02 nM
45. CC(C)OC(=O)c1c(NC(=O)c2cccs2)sc2c1CCCC2  1.01 nM
46. CC(C)Oc1nc(-c2ccccc2O)nc2ccccc12  1.01 nM
47. Cc1cc(C)c(C#N)c(Oc2ccccc2Br)n1  1.01 nM
48. CC(C)c1ccc(/C=N/Nc2cc(N3CCOCC3)nc(N3CCOCC3)n2)cc1  0.98 nM
49. CCOC(=O)C1=C(C)N(C)C(C)=C(C(=O)OCC)C1c1ccccc1  0.97 nM
50. CC1=C/C(=C(/c2ccc(O)c(C)c2)c2ccccc2C(=O)O)C=CC1=O  0.96 nM
51. N#CC1=C(N)S[C@H](C(=O)C23CC4CC(CC(C4)C2)C3)[C@H]1c1ccncc1  0.96 nM
52. CCSc1nc2sc3c(c2c(=O)n1CC)CC(C)(C)OC3  0.96 nM
53. O=c1c(C=NCc2ccccc2)c(NCc2ccccc2)nc2ccccn12  0.96 nM
54. COc1ccc(N2CCN(c3nc4c(c(=O)n(C)c(=O)n4C)n3Cc3ccccc3)CC2)cc1  0.92 nM
55. COc1ccc(C(=O)c2ccccc2)c(O)c1  0.92 nM
56. C=CCc1cccc(C=Nc2cc(Br)ccc2O)c1O  0.89 nM
57. CCCCNc1nc(-c2ccccc2)c(C(=O)OCC)cc1C#N  0.88 nM
58. Cc1cccc(-c2nc(=S)c3c(n2Cc2ccco2)CCCC3)c1  0.88 nM
59. CCCc1cc(-c2nc(N)ncc2-c2ccc3c(c2)OCCCO3)c(O)cc1OC  0.86 nM
60. COc1cc2nc(N3CCN(C(=O)C4CCCO4)CC3)nc(N)c2cc1OC (stereo not drawn)  0.85 nM
61. C=CCOc1ccccc1CNc1cccc(F)c1  0.84 nM
62. CCN(Cc1cc(Cl)cc(C)c1O)Cc1c(O)ccc2ccccc12  0.84 nM
63. CC1=CC(C)(C)N(C(=O)c2ccccc2)c2ccccc21  0.8 nM
64. O=C(CSc1nc2ccccc2o1)Nc1ccccc1N1CCCCCC1  0.78 nM
65. COc1cc(CN2CCC(C(=O)N3CCN(c4ccccc4F)CC3)CC2)cc(OC)c1OC  0.75 nM
66. O=c1c(O)c(-c2ccccc2)oc2ccc3occc3c12  0.74 nM
67. C=CCSc1nc2ccccc2c(=O)n1Cc1ccccc1  0.72 nM
68. CCOC(=O)C1=C(C)NC(C)=C(C(=O)OC)C1c1cccc(Cl)c1Cl (stereo not drawn)  0.69 nM
69. CCOC(=O)c1ccccc1NC(=O)C1COc2ccccc2O1 (stereo not drawn)  0.66 nM
70. COc1ccc(N=Cc2cc(Cc3ccccc3Cl)cc([N+](=O)[O-])c2O)cc1OC  0.65 nM
71. CC(Sc1nnc(-c2cccs2)n1Cc1ccccc1)C(=O)NCc1ccc2c(c1)OCO2 (stereo not drawn)  0.62 nM
72. CN(C)c1nc(N2CCOCC2)nc(N(c2ccccc2)c2ccccc2)n1  0.61 nM
73. CN(CC(=O)Nc1ccccc1-c1ccccc1)C1CCCCC1  0.51 nM
74. COc1ccc(C2=NN(C(=O)c3cccs3)C(c3ccccc3O)C2)cc1 (stereo not drawn)  0.51 nM
75. C[N+]1(C)CCOC(O)(c2ccc(-c3ccc(C4(O)C[N+](C)(C)CCO4)cc3)cc2)C1 (stereo not drawn)  0.14 nM
